Experiments:
[1] = tested on: LLY (Streptococcus mitis SK597 lectinolysin, SEQ ID NO:1) on human donor 1 platelets; assay: Block of the lectin-dependent enhancement of LLY pore formation (calcein release from platelets); format: cell-based; details: high responder platelets pretreated
Protocol: Calcein release assay. PRP was diluted 1:100 with HEPES/saline assay buffer (2 mM CaCl2, 1 mM MgCl2, 150 mM NaCl, 10 mM HEPES, pH 7.5) and incubated with 2 μM calcein-acetoxy methyl ester (Molecular Probes, Eugene, Oreg.) for 10 minutes at room temperature as previously described (17). LLY (0.7-2.9 nM) was incubated with the calcein-loaded PRP for 10 minutes at room temperature. Samples were then diluted with HEPES/saline and analyzed on a FACSCalibur flow cytometer (Becton-Dickinson) using settings as described previously (17). Cells losing calcein fluorescence were quantified as a percentage of total platelets.
The EC50 values for LLY- and LLY^CDC-dependent calcein release were calculated using a nonlinear sigmoidal dose-response curve fit of the data (Prism Software).
We hypothesized that enhancement of LLY activity resulted from a glycan-dependent interaction of the lectin domain after monomer bound the cell surface. If correct then preincubating platelets with LLY^Lec should prevent interaction of the lectin domain of LLY with surface glycans and block the enhancement of LLY activity on the highly sensitive donor 1 platelets.

[2] = molecular target: T1, LLY^Lec-Q190C (isolated fucolectin domain of Streptococcus mitis SK597 lectinolysin, SEQ ID NO:3, Q190C = position 154 of the domain) (Streptococcus sp. SK597, UniProt B3UZR3, Q190C); assay: Glycan microarray binding, Alexa-488 labeled LLY^Lec; details: for glycan microarray binding at the lowest LLY^Lec concentration: 5.6 nM LLY^Lec, determinants lacking the difucosylated structures
T1 construct: Alexa-488 maleimide on Cys-190; E. coli
Protocol: FIGS. 7A & 7B. LLY^Lec preferentially binds Le^y and Le^b glycans. Version 2.1 of the printed glycan microarray (Consortium for Functional Glycomics) was probed with Alexa-488 labeled LLY^Lec-Q190C at 560 nM, 56 nM and 5.6 nM. […] The average RFU (from 4-6 analysis with high and low values eliminated) for each bound glycan was determined as described in the Methods and the % CV (100×Standard Deviation÷Average) provides an indication of the precision of each measurement. […] AVG RFU is average relative fluorescence units; SP, spacer arm or linker between glycan and surface of the array; SP0, —CH2CH2NH2; and SP8, CH2CH2CH2NH2. Circles; galactose, squares; GalNac, triangles, fucose, squares; GlcNAc.
Chemical modification of LLY and its derivatives with sulfhydryl-specific fluorescent probes. Cysteine derivatives of LLY and LLY^Lec (i.e., the 162 amino acid fucolectin domain) were modified with Alexa Fluor 488 C5-maleimide (Invitrogen) via the sulfhydryl group as previously described (12). Modified protein stocks were adjusted to 10% (v/v) sterile glycerol, quick frozen in liquid nitrogen, and stored at −80° C. Proteins were labeled at an efficiency of 75% or greater.
Glycan microarray binding assay and scanning. Glycan microarrays were prepared as described previously (33,37) and obtained from the NIH/NIGMS-funded Consortium for Functional Glycomics (see http://www.functionalglycomics.org/static/index.shtml). Before assay, the slides were rehydrated for 5 minutes in TSM buffer (20 mM Tris-HCL, 150 mM sodium chloride (NaCl), 0.2 mM calcium chloride (CaCl2) and 0.2 mM magnesium chloride (MgCl2). Alexa-488-labeled LLY^Q190C and its derivatives were used in the binding assay (560-640 nM), and the bound proteins were detected directly via the fluorescent tag.
The slides were scanned with a Perkin Elmer ProScanarray MicroArray Scanner (Waltham, Mass.) using an excitation wavelength of 488 nm. ImaGene software (BioDiscovery, Inc., El Segundo, Calif.) was used to quantify fluorescence. The data are reported as average relative fluorescence units (RFU) from 4 of the 6 replicates (after removal of the highest and lowest values) for each glycan represented on the array. Versions 2.1 and 3.0 of the printed array were used in these studies and a complete list of glycans printed on these arrays can be found at the Functional Glycomics Gateway website:
Purified LLY^Lec-Q190C was fluorescently labeled with Alexa-488 and used to probe the glycan microarray. […] The AAA glycan binding site contains three key residues that make polar contacts with the fucose molecule. The Nε of His-52 contacts O-5 of the fucose ring whereas the guanidinium groups of Arg-79 and Arg-86 make contact with 3-OH and 4-OH ring hydroxyls of fucose (10). […]

C[C@@H]1OC(O)[C@@H](O)[C@H](O)[C@@H]1O (stereo partly drawn) [fucose, L-fucose]
effect of pretreatment on the high/low responder EC50 difference [1]: This difference was abolished

Fucα1-2Galβ [H-antigen]
glycan microarray binding at the lowest LLY^Lec concentration [2]: binds weakly or not at all
glycan microarray ligand preference ([2]; printed glycan microarray, overall conclusion): weaker ligand

GaNAclα1-3[Fucα1-2]Galβ1-3/4R [blood group A]
glycan microarray binding at the lowest LLY^Lec concentration [2]: binds weakly or not at all

Galα1-3[Fucα1-2]Galβ1-3/4R [blood group B]
glycan microarray binding at the lowest LLY^Lec concentration [2]: binds weakly or not at all

Reference: US20110052494A1, “H-ANTIGEN BINDING POLYPEPTIDES AND METHODS OF USE” (priority 2008, published 2011)
